Measured values as given in ChEMBL document CHEMBL5584238, “Psammaplin A analogues with modified disulfide bond targeting histone deacetylases: Synthesis and biological evaluation” (Eur J Med Chem, 2024).
Activity calls are given as the source filed them. The calls are words filed in the database; no cut-off is given here.

Columns and labels:
[1] = target: Class 1 histone deacetylase (Homo sapiens) (UniProt Q13547+O15379+Q92769+Q9BY41); assay: Inhibition of class 1 HDACs in human HCT-116 cells assessed as upregulation of acetylated alpha-H3 level incubated for 24 hrs by Western blotting analysis; format: cell-based; settings: dose 0.5-4 µM
HCT-116 [2] = assay: Induction of cell cycle arrest in human HCT-116 cells assessed as accumulation of cells at G1 phase at 0.2 uM after 24 hrs by PI staining based flow cytometry analysis (reference value: 37.9%); format: functional
[3] = target: T1, Protein deacetylase HDAC6 (Mus musculus) (UniProt Q9Z2V5); assay: In vivo inhibition of HDAC6 in BALB/c nude mouse assessed as upregulation of tumor acetylated alpha-tubulin level at 5 mg/kg, ip administered every 2 days for 26 days by Western blotting analysis; format: functional, organism-based; settings: time 26.0 day
T1 sequence (whole entry): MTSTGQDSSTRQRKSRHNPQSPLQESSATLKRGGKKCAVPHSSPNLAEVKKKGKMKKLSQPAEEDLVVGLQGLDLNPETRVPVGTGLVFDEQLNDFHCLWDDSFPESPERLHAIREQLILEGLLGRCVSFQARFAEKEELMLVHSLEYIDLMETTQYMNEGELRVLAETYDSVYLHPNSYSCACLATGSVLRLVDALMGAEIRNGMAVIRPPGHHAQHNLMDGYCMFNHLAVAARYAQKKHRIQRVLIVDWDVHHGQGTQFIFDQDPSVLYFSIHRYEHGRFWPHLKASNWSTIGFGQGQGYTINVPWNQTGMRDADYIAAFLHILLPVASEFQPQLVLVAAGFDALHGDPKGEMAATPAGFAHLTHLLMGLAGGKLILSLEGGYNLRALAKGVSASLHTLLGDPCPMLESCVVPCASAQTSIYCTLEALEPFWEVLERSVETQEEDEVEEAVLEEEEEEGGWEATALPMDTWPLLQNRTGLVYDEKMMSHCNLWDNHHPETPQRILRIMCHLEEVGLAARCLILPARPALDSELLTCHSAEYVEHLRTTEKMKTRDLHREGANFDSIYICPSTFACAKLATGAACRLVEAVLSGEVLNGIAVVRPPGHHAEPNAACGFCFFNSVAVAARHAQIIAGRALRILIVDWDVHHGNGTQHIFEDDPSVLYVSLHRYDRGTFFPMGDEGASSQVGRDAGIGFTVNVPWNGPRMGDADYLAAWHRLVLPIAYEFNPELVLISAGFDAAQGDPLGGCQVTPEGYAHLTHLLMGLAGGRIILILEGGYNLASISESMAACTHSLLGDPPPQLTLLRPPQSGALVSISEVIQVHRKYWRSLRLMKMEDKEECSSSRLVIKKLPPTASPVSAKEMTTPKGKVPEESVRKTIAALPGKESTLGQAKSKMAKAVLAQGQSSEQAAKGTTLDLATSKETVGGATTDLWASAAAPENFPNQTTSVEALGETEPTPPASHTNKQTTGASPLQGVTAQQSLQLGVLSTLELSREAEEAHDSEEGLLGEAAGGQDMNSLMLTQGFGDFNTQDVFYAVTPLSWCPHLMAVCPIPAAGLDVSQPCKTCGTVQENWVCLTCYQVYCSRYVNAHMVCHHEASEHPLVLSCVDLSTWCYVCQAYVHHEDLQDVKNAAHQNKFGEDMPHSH

Histone deacetylase 1 = Histone deacetylase 1 (Homo sapiens, UniProt Q13547); assay: Inhibition of recombinant human HDAC1 using Boc-Lys(Ac)-AMC as substrate preincubated for 1 hr followed by substrate addition and measured after 2 hrs by microplate reader assay
HCT-116 [4] = assay: Induction of cell cycle arrest in human HCT-116 cells assessed as accumulation of cells at G2/M phase at 0.1 uM after 24 hrs by PI staining based flow cytometry analysis (reference value: 9.3%); format: functional
HCT-116 [5] = assay: Antitumor activity against human HCT-116 cells xenografted with BALB/c nude mouse assessed as tumor growth inhibition at 5 mg/kg, ip administered every 2 days for 26 days; format: functional; settings: HCT-116, 624 h, time 26 day, read-out: TGI
HCT-116 [6] = assay: Induction of cell cycle arrest in human HCT-116 cells assessed as accumulation of cells at S phase at 0.2 uM after 24 hrs by PI staining based flow cytometry analysis (reference value: 52.8%); format: functional
[7] = target: T2, Protein deacetylase HDAC6 (Homo sapiens, UniProt Q9UBN7); assay: Inhibition of recombinant human HDAC6 using Boc-Lys(Ac)-AMC as substrate preincubated for 1 hr followed by substrate addition and measured after 2 hrs by microplate reader assay
T2 sequence (Q9UBN7 whole entry): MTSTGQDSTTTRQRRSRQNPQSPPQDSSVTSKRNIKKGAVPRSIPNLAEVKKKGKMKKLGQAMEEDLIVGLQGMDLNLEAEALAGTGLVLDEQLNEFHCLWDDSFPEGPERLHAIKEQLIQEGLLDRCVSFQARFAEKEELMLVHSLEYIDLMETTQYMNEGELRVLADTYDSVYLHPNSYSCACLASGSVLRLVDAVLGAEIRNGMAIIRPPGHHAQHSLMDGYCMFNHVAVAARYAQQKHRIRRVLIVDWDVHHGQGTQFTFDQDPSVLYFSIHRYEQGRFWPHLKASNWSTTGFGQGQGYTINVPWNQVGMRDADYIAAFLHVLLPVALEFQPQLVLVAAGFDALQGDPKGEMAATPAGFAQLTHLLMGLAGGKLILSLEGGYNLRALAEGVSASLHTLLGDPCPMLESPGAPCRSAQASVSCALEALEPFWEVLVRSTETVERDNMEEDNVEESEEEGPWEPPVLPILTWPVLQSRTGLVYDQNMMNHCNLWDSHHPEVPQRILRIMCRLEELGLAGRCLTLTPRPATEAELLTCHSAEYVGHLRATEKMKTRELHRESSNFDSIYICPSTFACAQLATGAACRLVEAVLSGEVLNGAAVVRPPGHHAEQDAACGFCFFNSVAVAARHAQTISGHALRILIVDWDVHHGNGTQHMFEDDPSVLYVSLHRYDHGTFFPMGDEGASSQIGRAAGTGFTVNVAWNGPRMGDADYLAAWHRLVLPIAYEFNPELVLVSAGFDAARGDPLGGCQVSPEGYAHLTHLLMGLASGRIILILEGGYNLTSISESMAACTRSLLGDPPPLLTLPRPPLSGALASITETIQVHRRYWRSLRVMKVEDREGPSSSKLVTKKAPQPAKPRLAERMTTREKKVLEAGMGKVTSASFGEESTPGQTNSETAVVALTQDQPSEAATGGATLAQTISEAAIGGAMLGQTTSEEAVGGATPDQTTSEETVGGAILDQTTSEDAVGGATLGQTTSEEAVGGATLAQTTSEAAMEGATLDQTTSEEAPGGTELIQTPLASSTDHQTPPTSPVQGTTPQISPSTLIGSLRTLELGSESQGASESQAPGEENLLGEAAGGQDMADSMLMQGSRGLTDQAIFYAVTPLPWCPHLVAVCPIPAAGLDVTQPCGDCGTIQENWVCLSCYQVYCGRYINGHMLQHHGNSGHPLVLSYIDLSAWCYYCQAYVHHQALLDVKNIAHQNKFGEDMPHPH

Sequence of Histone deacetylase 1 (Q13547 whole entry): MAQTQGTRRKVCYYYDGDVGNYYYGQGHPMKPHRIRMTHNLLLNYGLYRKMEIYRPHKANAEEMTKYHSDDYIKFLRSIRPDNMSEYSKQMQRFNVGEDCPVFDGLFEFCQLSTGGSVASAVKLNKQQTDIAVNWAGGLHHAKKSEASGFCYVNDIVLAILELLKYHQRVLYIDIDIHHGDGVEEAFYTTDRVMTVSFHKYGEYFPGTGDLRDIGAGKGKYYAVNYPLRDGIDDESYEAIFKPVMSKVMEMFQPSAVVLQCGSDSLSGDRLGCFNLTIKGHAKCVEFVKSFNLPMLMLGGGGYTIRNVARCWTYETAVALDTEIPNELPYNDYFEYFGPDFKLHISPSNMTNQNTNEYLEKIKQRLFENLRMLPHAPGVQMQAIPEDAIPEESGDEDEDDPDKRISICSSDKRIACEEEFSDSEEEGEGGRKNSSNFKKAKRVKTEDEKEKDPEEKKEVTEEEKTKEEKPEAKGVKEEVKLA
Sequence of Class 1 histone deacetylase (Homo sapiens) (O15379 whole entry, looked up): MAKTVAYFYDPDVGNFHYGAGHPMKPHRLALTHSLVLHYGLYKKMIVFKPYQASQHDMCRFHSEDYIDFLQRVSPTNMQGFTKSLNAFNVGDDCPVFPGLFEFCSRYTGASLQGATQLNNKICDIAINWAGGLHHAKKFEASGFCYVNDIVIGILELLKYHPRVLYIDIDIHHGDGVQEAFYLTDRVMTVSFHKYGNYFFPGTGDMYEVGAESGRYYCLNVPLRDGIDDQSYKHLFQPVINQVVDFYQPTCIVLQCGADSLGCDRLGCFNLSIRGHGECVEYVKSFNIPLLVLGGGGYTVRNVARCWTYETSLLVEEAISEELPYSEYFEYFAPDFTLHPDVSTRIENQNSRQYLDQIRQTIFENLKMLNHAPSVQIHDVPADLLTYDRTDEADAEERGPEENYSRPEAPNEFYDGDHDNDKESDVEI
Sequence of Class 1 histone deacetylase (Homo sapiens) (Q13547 whole entry, looked up): as the sequence (Q13547 whole entry) above
Sequence of Class 1 histone deacetylase (Homo sapiens) (Q92769 whole entry, looked up): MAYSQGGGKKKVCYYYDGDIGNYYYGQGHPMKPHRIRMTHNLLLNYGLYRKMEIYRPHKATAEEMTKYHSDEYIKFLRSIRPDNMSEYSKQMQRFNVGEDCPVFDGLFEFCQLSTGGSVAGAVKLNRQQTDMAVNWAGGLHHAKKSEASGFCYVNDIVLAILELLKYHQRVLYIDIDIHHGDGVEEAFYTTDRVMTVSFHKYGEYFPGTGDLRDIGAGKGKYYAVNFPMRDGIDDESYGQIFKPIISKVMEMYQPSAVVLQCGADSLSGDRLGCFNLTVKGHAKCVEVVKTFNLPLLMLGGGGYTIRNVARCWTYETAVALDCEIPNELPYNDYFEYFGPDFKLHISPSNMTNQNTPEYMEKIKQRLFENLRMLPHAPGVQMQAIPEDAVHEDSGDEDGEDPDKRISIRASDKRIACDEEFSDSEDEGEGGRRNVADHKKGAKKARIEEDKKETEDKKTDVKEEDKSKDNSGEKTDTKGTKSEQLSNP
Sequence of Class 1 histone deacetylase (Homo sapiens) (Q9BY41 whole entry, looked up): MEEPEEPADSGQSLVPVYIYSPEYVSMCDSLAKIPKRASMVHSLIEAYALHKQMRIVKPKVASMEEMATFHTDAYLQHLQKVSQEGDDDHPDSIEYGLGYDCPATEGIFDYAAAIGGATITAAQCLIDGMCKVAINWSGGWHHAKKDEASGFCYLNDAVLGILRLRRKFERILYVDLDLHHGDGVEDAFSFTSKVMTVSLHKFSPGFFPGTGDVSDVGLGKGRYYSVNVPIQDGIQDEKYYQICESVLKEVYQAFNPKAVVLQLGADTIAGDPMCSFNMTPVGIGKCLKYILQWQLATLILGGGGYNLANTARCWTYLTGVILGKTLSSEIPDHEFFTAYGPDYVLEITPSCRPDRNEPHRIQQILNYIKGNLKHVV

| SMILES | inhibition [1] | Activity (HCT-116 [2]) | inhibition [3] | IC50 (Histone deacetylase 1) | Activity (HCT-116 [4]) | inhibition in vivo at 5 mg/kg (HCT-116 [5]) | Activity (HCT-116 [6]) | IC50 [7] |
| --- | --- | --- | --- | --- | --- | --- | --- | --- |
| O=C(NCC[Se][Se]CCNC(=O)/C(Cc1ccsc1)=N/O)/C(Cc1ccsc1)=N/O | Dose-Dependent Effect | 11.19% | Active | 770 nM | 31.05% | 24% | 36.99% | 3100 nM |
| O=C(NCC[Se][Se]CCNC(=O)/C(Cc1ccc(O)c(Br)c1)=N/O)/C(Cc1ccc(O)c(Br)c1)=N/O | Dose-Dependent Effect | 15% | Active | 170 nM | 47.92% | 74.6% | 10.45% | 60 nM |
